Test results from publication PMC3764137, “Sulphamoylated 2-Methoxyestradiol Analogues Induce Apoptosis in Adenocarcinoma Cell Lines” (PLoS ONE, 2013).
Entries after “also recorded” stand apart in the source; their conditions may differ.

How the values were obtained:
MDA-MB-231 = details: 500 nM, 72 hours of exposure; ref 13 (Foster et al. 2008); cited from earlier work
MCF-7 cell line = details: cited from earlier work
tubulin = test: Tubulin polymerization assay (DAPI fluorescence); assay type: biochemical; details: for EC50: in vitro tubulin polymerization, read-out: tubulin polymerization inhibition EC50
Experimental: Briefly, microtubule assembly was conducted in a half area 96 well black plate using a microplate reader FLUOstar OPTIMA (BMG Labtechnologies). […] Following 10 min incubation, assembly was initiated by injection of GTP and MgCl2 to a final concentration of 1 mM and 5 mM respectively, yielding a reaction volume of 100 µl. The excitation and emission wavelengths were set at 360 and 450 nm, respectively, and the fluorescence of microtubule-bound DAPI was monitored as a function of time at 37°C. Fluorescence signal at time 0 for each well was subtracted from each of the subsequent fluorescence readings, [22].

[1] = test system: human umbilical vein endothelial cells (HUVECs); details: 500 nM, 72 hours of exposure; ref 13 (Foster et al. 2008); cited from earlier work
HeLa cells [2] = test: Cell morphology by transmission electron microscopy; assay type: cell-based, human; details: 24 h
Experimental: The in vitro influence of ESE-15-one, EMBS and ESE-16 on cell morphology was determined after exposure for 24 h using transmission electron microscopy (TEM). […] After each fixation step the samples were rinsed 3 times in 0.0075 M sodium phosphate buffer (pH 7.4). Samples were dehydrated using increasing concentrations of ethanol (30%, 50%, 70%, 90%, and 3×100%) and embedded in Quetol resin, sectioned with a microtome and placed on copper discs. Sections were contrasted with 4% aqueous uranyl acetate and Reynolds' lead citrate and viewed with a JOEL JEM 2100F transmission electron microscope (Electron Microscopy Unit, University of Pretoria, South Africa).

caspase-8 = test: FLICE/caspase 8 colorimetric assay; assay type: cell-based, human; details: 0.5 μM, 24 h
Experimental: (§1) Possible activation of caspase 3, -6 and -8 was investigated by means of caspase 3, caspase 6 and FLICE/caspase 8 colorimetric kits, respectively. Cells (1,000,000) were seeded with an overnight attachment policy. After 24 h of exposure to 0.5 μM of the sulphamoylated 2ME2 analogues, cells were detached with trypsin and centrifuged at 13,000× g. Cells (500,000) were resuspended in 50 µl of chilled cell lysis buffer and incubated on ice for 10 min. Cells were centrifuged at 10,000×g for a min. Supernatant was transferred to a fresh tube and put on ice. After determination of the protein concentration using the bicinchoninic acid (BCA) protein assay (Thermo Fisher Scientific, Johannesburg, South Africa), 100 µg protein/50 µl cell lysis buffer was mixed with 50 µl 2X reaction buffer (containing 10 mM Dithiothreitol (DTT)). Ac-Asp-Glu-Val-Asp-p-nitroanilide (Ac-DEVD-pNA) (5 µl of 4 mM) (caspase-3-specific substrate), or 5 µl 4 mM […] (Ac-VEID-pNA) (caspase-6-specific substrate), or 5 µl 4 mM Ac-Ile-Glu-Thr-Asp-p-nitroanilide (Ac-IETD-pNA) (caspase-8-specific substrate) was added and the mixture was incubated at 37°C for 120 min (200 µM final concentration). Absorbance was determined at 405 nm on the ELx800 Universal Microplate Reader available from Bio-Tek Instruments Inc. (Vermont, United States of America).

HeLa cells [3] = test: Mitochondrial membrane potential assay (Mitocapture, flow cytometry); assay type: cell-based, human; details: 0.5 μM analogues (2-methoxyestradiol-bis-sulphamate 0.55 μM), 24 h
Experimental: Cells (500,000) were seeded with an overnight attachment policy. After 24 h of exposure to 0.5 μM of the sulphamoylated 2ME2 analogues, cells were detached using trypsin and centrifuged at 13,000×g.

caspase-6 = test: Caspase 6 colorimetric assay; assay type: cell-based, human; details: 0.5 μM, 24 h
Experimental: as §1

HeLa cells [4] = test: Cytochrome c release (FlowCellect, flow cytometry); assay type: cell-based, human; details: 0.5 μM analogues (2-methoxyestradiol-bis-sulphamate 0.55 μM), 24 h
Experimental: (§2) This kit utilizes a unique set of buffers that selectively permeabilizes the […] without affecting the mitochondrial membrane. […] Cells (500,000) were seeded with an overnight attachment policy. After 24 h of exposure to 0.5 μM of the sulphamoylated 2ME2 analogues, cells were detached using trypsin and centrifuged at 13,000×g. Cells (500,000) were resuspended in PBS, centrifuged and resuspended in permeabilization buffer (according to supplier's instructions) for 10 min on ice. Subsequently cells were centrifuged, resuspended in 100 µl fixation buffer (according to supplier's instructions) for 20 min at room temperature, centrifuged again and resuspended in blocking buffer (150 µl). After another centrifugation step, cells were centrifuged and resuspended in blocking buffer (twice). Anti-cytochrome c-FITC (10 µl) was added to each sample and samples were incubated for 30 min at room temperature. Cells were centrifuged and blocking buffer (100 µl) was added. After centrifugation, blocking buffer (200 µl) was added to the samples for analysis via flow cytometry (FC500 System flow cytometer, Beckman Coulter South Africa (Pty) Ltd). Cells presenting with cytochrome c release were detected in the fluorescein isothiocyanate (FITC) channel (FL1) showing diffused green fluorescence. Data from at least 10 000 cells were analyzed by means of Cyflogic version 1.2.1 software (Pertu Therho, Turko, Finland).

MDA-MB-231 cells [5] = test: Cytochrome c release (FlowCellect, flow cytometry); assay type: cell-based, human; details: MDA-MB-231, 0.5 μM analogues (2-methoxyestradiol-bis-sulphamate 0.55 μM), 24 h
Experimental: as §2

caspase 3 = details: HeLa cells; another study conducted in our laboratory (data not shown); cited from earlier work
HeLa cells [6] = test: Cell number determination by crystal violet staining; assay type: cell-based, human; details: for cell growth: 24 h
Experimental: Crystal violet is a method used to determine the number of cells by staining the deoxyribonucleic acid (DNA). Gillies et al. (1986) used crystal violet to quantify cell number in monolayer cultures as a function of the absorbance of the dye taken up by the cells. A dose-dependent study was chosen with a concentration range of 0.1–25 μM since it was previously observed in our laboratory that this concentration series exerts antiproliferative activity in HeLa cells. Exponentially growing HeLa cells were seeded in 96 well tissue culture plates at a cell density of 5,000 cells per well. Cells were incubated at 37°C in a humidified atmosphere containing 5% CO2 for 24 h to allow for attachment. To establish the starting number of cells, a baseline determination was conducted before exposure. Subsequently, the medium was discarded and cells were exposed to the sulphamoylated 2ME2 analogues at a concentration series of 0.1–25 μM for the 24 h at 37°C. Vehicle-treated controls were also included. Cells were fixed with 100 µl of 1% gluteraldehyde (incubation for 15 min at room temperature). Gluteraldehyde was discarded and cells were stained using 100 µl 0.1% crystal violet (incubated at room temperature for 30 min). Excedent crystal violet was discarded and the 96 well plate was submersed under running water. Cells were solubilized using 200 µl 0.2% Triton X-100 and incubated at room temperature for 30 min. Solution (100 µl) was transferred to a new microtitre plate. Afterwards, the absorbance was determined at 570 nm using an ELx800 Universal Microplate Reader available from Bio-Tek Instruments Inc. (Vermont, United States of America).

HeLa cells [7] = test: Double immunofluorescence of intracellular microtubules; assay type: cell-based, human; details: 24 h, 0.189 μM ESE-15-one, 0.5 μM EMBS and ESE-16, 1μM colchicine
Experimental: (§3) In order to visualize the effect of the 2ME2 analogues on microtubule dynamics and integrity, a double immunofluorescence technique using antibodies against tyrosinated and detyrsosinated tubulin was conducted as described by Paturle-Lafanechère et al. (2004). HeLa and MDA-MB-231 cells were seeded onto sterilized coverslips and allowed to grow to 80% confluency for 48 h. Cells were exposed to 0.189 μM ESE-15-one, 0.5 μM EMBS and ESE-16 along with DMSO (negative control) and 1μM colchicine as a positive control for 24 h. Cells were permeablised permeabilized with warmed OPT buffer (80 mmol/L Pipes, […], […], 0.5% Triton X-100 and glycerol 10%, pH 6.8), followed by fixation in ice-cold methanol at −20°C and were subsequently incubated with the primary antibody cocktail (PBS containing anti-detyrosinated tubulin (L4), anti-[…], BSA 0.3%, tween 0.1%). After incubation, cells were incubated with the secondary antibodies, namely Alexa 488 (Invitrogen) and Cy3 (Jackson ImmunoResearch laboratories). Samples were visualized using a Zeiss AxioImager Z1 microscope controlled by Axiovision softwared (Carl Zeiss) (X63 oil objective). Images were captured using an Ocra R2 N/B camera (Hamamatsu) and assessed for microtubule integrity and ratio of tyrosinated to detyrosinated tubulin.

MDA-MB-231 cells [8] = test: as above; assay type: cell-based, human; details: MDA-MB-231, 24 h; 0.189 μM ESE-15-one, 0.5 μM EMBS and ESE-16, 1μM colchicine
Experimental: as §3

SMILES | inner mitochondrial membrane potential (MDA-MB-231) | concentration with antiproliferative activity (MCF-7 cell line) [µM] | EC50 (tubulin) [µM] | inner mitochondrial membrane potential [1] | apoptotic bodies (TEM) (HeLa cells [2]) | vacuoles (TEM) (HeLa cells [2]) | caspase-8 activity increase compared to vehicle-treated cells (caspase-8) [fold] | cells with reduced mitochondrial potential (HeLa cells [3]) [%] | effect on tubulin polymerization (tubulin; in vitro) | caspase-6 activity ratio compared to vehicle-treated cells (caspase-6) | Cytochrome c in cytoplasm (cells with cytochrome c release) (HeLa cells [4]) [%] | Cytochrome c in cytoplasm (cells with cytochrome c release) (MDA-MB-231 cells [5]) [%] | caspase 3 activity increase (caspase 3) [fold] | cell shrinkage (TEM) (HeLa cells [2]; compared to vehicle-treated cells) | cell growth (HeLa cells [6]; 0.1 µM) [%] | cell growth (HeLa cells [6]; 0.5 µM, compared to vehicle-treated cells) [%] | concentration that significantly inhibits HeLa proliferation (HeLa cells [6]; 24 h of exposure) [µM] | microtubule integrity (HeLa cells [7]) | microtubule integrity (MDA-MB-231 cells [8])
COc1cc2c(cc1OS(N)(=O)=O)CC[C@@H]1[C@@H]2CC[C@]2(C)[C@@H](OS(N)(=O)=O)CC[C@@H]12 [2-methoxyestradiol-bis-sulphamate, reference compound] | depolarized | 0.1 to 1 | 11 | depolarized | Apoptotic bodies were observed | vacuoles |  |  |  |  |  |  |  |  |  |  |  |  | 
CCc1cc2c(cc1OS(N)(=O)=O)CC[C@@H]1[C@@H]2CC[C@]2(C)C=CC[C@@H]12 [ESE-16, 2-ethyl-3-O-sulphamoyl-estra-1,3,5 (10) 16-tetraene] |  |  | 5 |  | Apoptotic bodies were observed | vacuoles | 1.7 | 68.43 | more pronounced effect on tubulin polymerization; also recorded: pronounced effect comparable with that of colchicine | 3.2 | 10 | 30 | 8 | shrunken | 45.59 | 45.30 | 0.5 | microtubule abrogation; also recorded: complete microtubule depolymerisation | detyrosinated microtubule fragments
COc1cc2c(c(OC)c1OC)-c1ccc(OC)c(=O)cc1[C@@H](NC(C)=O)CC2 [colchicine, reference compound] |  |  |  |  |  |  |  |  |  |  |  |  |  |  |  |  |  | only fragments of detyrosinated microtubules remaining; also recorded: complete microtubule depolymerisation | complete microtubule depolymerisation
